Data on twelve molecules can be found in ChEMBL document CHEMBL1134148, “Combinatorial synthesis of CCR5 antagonists” (Bioorg Med Chem Lett, 2001).

Experiment [1] has as its target T1, C-C chemokine receptor type 5 (Homo sapiens, UniProt P51681). As to the kind of experiment: Ability to inhibit binding of [125I]-MIP-1 alpha to C-C chemokine receptor type 5 in Chinese hamster ovary (CHO) cell membranes.
In experiment [2] the test system is Human immunodeficiency virus 1. As to the kind of experiment: Inhibitory concentration for viral growth over 7 days vs YU-2 strain of HIV-1;NA means No significant activity at 10 uM. The class given is functional, organism-based.
Experiment [3] has as its system Human immunodeficiency virus 1. As to the kind of experiment: Inhibitory concentration for viral growth over 7 days vs YU-2 strain of HIV-1 at 10 uM. The class given is functional. Conditions: Human immunodeficiency virus 1, 168 h.
The target in experiment [4] is T1, C-C chemokine receptor type 5. Kind of experiment: Ability to inhibit binding of [125I]-MIP-1 alpha to C-C chemokine receptor type 5 in Chinese hamster ovary (CHO) cell membranes;NA means no significant activity.
Experiment [5] shares this target. As to the kind of experiment: Ability to inhibit binding of [125I]-MIP-1 alpha to C-C chemokine receptor type 5 in Chinese hamster ovary (CHO) cell membranes.

pIC50: −log10 of the molar value. Calls of active or inactive are those of the source. The rule behind the calls is not given here.

T1 sequence (P51681 whole entry): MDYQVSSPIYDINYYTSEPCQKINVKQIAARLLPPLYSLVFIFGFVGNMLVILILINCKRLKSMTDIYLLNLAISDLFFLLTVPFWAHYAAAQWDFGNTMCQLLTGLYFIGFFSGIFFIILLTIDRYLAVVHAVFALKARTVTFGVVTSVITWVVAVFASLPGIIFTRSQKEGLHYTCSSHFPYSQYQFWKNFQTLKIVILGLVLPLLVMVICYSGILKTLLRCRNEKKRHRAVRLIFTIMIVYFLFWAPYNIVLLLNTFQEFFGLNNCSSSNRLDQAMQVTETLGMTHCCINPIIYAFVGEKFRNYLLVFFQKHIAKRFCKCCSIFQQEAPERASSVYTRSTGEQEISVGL

`CN(CC(CCN1CCC(CCCc2ccccc2)CC1)c1ccccc1)S(=O)(=O)c1cccs1` (stereo unspecified): in experiment [1], the pIC50 (in general, −log10 of the IC50, conventionally taken in molar units) was 8.52. Further, in experiment [2], the IC95 (commonly the point of the concentration-response curve where the effect stands at 95%) was “inactive”.

As for `CN(CC(CCN1CCC(CCCc2ccccc2)CC1)c1ccccc1)S(=O)(=O)c1ccc(-c2ccccn2)s1` (stereo unspecified), in experiment [1], the pIC50 is 8.70. It took 3.1 µM to reach the 95% level in experiment [3] (IC95).

`CN(CC1CCCCC1)CC(CCN1CCC(CCCc2ccccc2)CC1)c1ccccc1` (stereo unspecified): the IC50 result in experiment [4] is given as “Not Active”.

In turn, `OC1(CCCc2ccccc2)CCN(C[C@H]2CN(CC3CCCCC3)C[C@@H]2c2ccccc2)CC1` yielded an IC95 in experiment [3] of 0.58 µM. The molecule further showed a pIC50 in experiment [5] of 9.00.

In experiment [5], `O=S(=O)(c1ccc(-c2ccccn2)s1)N1C[C@H](CN2CCC(O)(CCCc3ccccc3)CC2)[C@@H](c2ccccc2)C1` gave a negative-log IC50 (pIC50) of 7.39.

With `CN(CC(CCN1CCC(O)(CCCc2ccccc2)CC1)c1ccccc1)S(=O)(=O)c1ccc(-c2ccccn2)s1` (stereo unspecified), in experiment [1], the pIC50 was 8.40. The molecule further returned an IC95 in experiment [3] of 6.2 µM.

As for `CN(CC1CCCCC1)CC(CCN1CCC(O)(CCCc2ccccc2)CC1)c1ccccc1` (stereo unspecified), the IC50 entry in experiment [4] is “Not Active”.

As to `O=S(=O)(c1cccs1)N1CC(CN2CCC(O)(CCCc3ccccc3)CC2)[C@@H](c2ccccc2)C1` (stereo partly specified), the pIC50 in experiment [5] was 7.70.

On to `O=S(=O)(c1ccc(-c2ccccn2)s1)N1C[C@H](CN2CCC(CCCc3ccccc3)CC2)[C@@H](c2ccccc2)C1`, for which, in experiment [5], the pIC50 is 7.22.

Take `O=S(=O)(c1cccs1)N1C[C@H](CN2CCC(CCCc3ccccc3)CC2)[C@@H](c2ccccc2)C1`: the pIC50 in experiment [5] is 7.60.

On to `c1ccc(CCCC2CCN(C[C@H]3CN(CC4CCCCC4)C[C@@H]3c3ccccc3)CC2)cc1`, for which, in experiment [5], the pIC50 was 8.19.

For the molecule `CN(CC(CCN1CCC(O)(CCCc2ccccc2)CC1)c1ccccc1)S(=O)(=O)c1cccs1` (stereo unspecified), in experiment [1], the pIC50 was 8.19.
